Measured values reported in US20030125388A1, “5-Aminolevulinic acid formulation dissolved/dispersed in non-aqueous solvents” (priority 2000, published 2003).

Columns and labels:
[1] = UV-VIS measurement of 5-ALA solution after dilution with water; assay type: physicochemical; conditions: 10% water-free solution, water added 1:1, subsequently diluted 1:100 with water
From the text: This was detected by measuring the decrease of absorbance at 447 nm (FIG. 2).

[2] = Decomposition check of non-aqueous 5-ALA solutions by capillary electrophoresis; assay type: physicochemical; conditions: 10% solutions (weight/vol) in 1,2-propylene glycol and glycerol, after complete dissolution
Protocol: 10% solutions (weight/vol) of […] in 1,2-propylene glycol and glycerol were prepared.

NCC(=O)CCC(=O)O [5-ALA, 5-aminolevulinic acid]
by-products in UV spectrum [1]: without the presence of by-products | degradation products (DHPY, PY, porphobilinogen) in capillary electrophoresis [2]: neither DHPY, PY nor porphobilinogen were detected
